# Measurements: publication PMC12012479, “Structural and functional characterization of the brain-specific dynamin superfamily member RNF112” (Proceedings of the National Academy of Sciences of the …, 2025)
# Changes are numbered by the printed parent chain.
# What was measured:
# [1] = biological target: T1, RNF112T (xlRNF112T) (Xenopus laevis, UniProt Q2VPQ0); test: ITC; type: binding; details: 5 mM MgCl2, 150 mM NaCl, pH 7.4, 25 °C
# T1 construct: gene rnf112.2.L; GTPase domain + three-helix middle domain; His6-SUMO tag cut by ULP1; E. coli; monomer, dimer with GDP-AlF4-
# T1 sequence (Q2VPQ0 120-541 limits assumed): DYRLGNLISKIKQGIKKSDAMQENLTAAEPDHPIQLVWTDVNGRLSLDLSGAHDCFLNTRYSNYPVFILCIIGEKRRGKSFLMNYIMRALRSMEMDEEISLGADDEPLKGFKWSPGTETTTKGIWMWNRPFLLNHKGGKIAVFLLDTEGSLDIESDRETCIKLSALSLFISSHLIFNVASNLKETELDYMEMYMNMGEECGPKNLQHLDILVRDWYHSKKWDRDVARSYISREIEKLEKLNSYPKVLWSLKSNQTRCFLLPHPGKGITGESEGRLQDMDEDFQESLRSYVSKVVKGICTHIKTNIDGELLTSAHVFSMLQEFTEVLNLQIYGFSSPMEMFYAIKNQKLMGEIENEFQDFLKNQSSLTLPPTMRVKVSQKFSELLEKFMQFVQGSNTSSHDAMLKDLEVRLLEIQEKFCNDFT
# From the text: ITC on RNF112T (xlRNF112T) | binding GTPγS and GDP with dissociation constants (Kd) in the micromolar range
# [2] = biological target: T1, RNF112T (xlRNF112T); test: X-ray crystal structure (form […] from GTPγS, […] Å; form […] by soaking); type: binding; details: nucleotide pocket of GTPase domain
# [3] = biological target: T2, RNF112F (Xenopus laevis, UniProt Q2VPQ0, T240A, form not given); test: binding assay in SI Fig. S9; details: GTPase-deficient mutant
# T2 construct: gene rnf112.2.L; near-full-length, residues 60 to 541 (RING, GTPase and middle domains); His6-SUMO tag cut by ULP1; E. coli; dimer with GDP-AlF4-
# T2 sequence (Q2VPQ0 60-541 T240A): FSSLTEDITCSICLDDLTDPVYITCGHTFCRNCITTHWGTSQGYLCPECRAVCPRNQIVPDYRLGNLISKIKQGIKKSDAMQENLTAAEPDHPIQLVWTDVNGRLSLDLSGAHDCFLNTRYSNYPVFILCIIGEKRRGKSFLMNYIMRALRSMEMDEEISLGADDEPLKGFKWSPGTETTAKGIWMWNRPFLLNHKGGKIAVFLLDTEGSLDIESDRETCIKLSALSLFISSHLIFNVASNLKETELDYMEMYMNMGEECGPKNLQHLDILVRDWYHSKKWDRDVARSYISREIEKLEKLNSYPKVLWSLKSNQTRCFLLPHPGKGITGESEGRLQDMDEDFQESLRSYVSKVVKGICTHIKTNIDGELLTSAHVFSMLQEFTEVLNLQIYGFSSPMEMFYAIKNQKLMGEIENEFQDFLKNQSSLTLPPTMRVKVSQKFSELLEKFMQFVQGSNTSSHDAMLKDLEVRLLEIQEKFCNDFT
# [4] = biological target: T3, mouse RNF112T (Mus musculus, UniProt Q96DY5); test: GTP hydrolysis assay; type: biochemical; details: 1 mM GTP, 20 μM protein, 1 mM MnCl2, pH 7.0, 37 °C
# T3 construct: gene Rnf112; truncated, GTPase domain + middle domain (borders not in main text); E. coli
# T3 sequence (Q96DY5 170-563 limits assumed): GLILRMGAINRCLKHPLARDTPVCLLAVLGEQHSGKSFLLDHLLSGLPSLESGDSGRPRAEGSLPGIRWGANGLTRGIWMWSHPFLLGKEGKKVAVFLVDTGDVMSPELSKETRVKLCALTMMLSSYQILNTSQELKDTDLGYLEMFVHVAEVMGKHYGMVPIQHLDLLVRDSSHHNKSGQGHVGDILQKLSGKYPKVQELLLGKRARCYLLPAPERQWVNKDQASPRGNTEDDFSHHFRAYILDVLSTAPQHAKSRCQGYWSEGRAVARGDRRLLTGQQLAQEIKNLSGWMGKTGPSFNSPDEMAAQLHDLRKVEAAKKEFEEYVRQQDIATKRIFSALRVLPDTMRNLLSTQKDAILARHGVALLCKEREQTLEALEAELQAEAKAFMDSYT
# [5] = biological target: T4, RNF112F (Xenopus laevis, UniProt Q2VPQ0); test: GTP hydrolysis assay; type: biochemical; details: 1 mM GTP, 20 μM protein, 1 mM MnCl2, pH 7.0, 37 °C
# T4 construct: gene rnf112.2.L; near-full-length, residues 60 to 541 (RING, GTPase and middle domains); His6-SUMO tag cut by ULP1; E. coli; dimer with GDP-AlF4-
# T4 sequence (Q2VPQ0 60-541): T2 sequence (Q2VPQ0 60-541 T240A) with A181T
# [6] = biological target: T5, human RNF112T (Homo sapiens, UniProt Q9ULX5); test: GTP hydrolysis assay; type: biochemical; details: 1 mM GTP, 20 μM protein, 1 mM MnCl2, pH 7.0, 37 °C
# T5 construct: gene RNF112; truncated, GTPase domain + middle domain (borders not in main text); E. coli
# T5 sequence (Q9ULX5 150-540 limits assumed): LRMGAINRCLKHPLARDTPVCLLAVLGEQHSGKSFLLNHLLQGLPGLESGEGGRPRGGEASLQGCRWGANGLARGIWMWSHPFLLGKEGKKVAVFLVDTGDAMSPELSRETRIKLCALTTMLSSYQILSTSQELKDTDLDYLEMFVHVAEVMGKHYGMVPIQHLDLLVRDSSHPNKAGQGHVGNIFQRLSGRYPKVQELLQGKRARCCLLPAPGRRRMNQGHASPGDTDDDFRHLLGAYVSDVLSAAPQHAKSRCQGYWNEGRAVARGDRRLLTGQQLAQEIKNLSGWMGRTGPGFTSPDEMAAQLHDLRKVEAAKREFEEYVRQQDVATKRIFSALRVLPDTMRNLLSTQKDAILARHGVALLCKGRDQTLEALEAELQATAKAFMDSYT
# [7] = biological target: near-full-length Xenopus laevis RNF112 containing residues 60 to 541 (RNF112F) (Xenopus laevis); test: SEC; analytical gel filtration in the presence of GDP•AlF4^−
molecule,measurement,setting,value
Nc1nc2c(ncn2[C@@H]2O[C@H](COP(=O)(O)OP(=O)(O)O)[C@@H](O)[C@H]2O)c(=O)[nH]1 [GDP],Kd,[1],14.4 ± 2.5 µM
same,"X-ray crystal structure (form 1 from GTPγS, 2.2 Å; form 2 by soaking)",[2],GDP-bound RNF112T structure derived from a nucleotide-free RNF112T crystal soaked with GDP
Nc1nc2c(ncn2[C@@H]2O[C@H](COP(=O)(O)OP(=O)(O)OP(=O)(O)O)[C@@H](O)[C@H]2O)c(=O)[nH]1 [GTP],binding assay in SI Fig. S9,[3],"GTPase-deficient mutant RNF112F(T240A), which bound GTP but did not dimerize"
same,GTP hydrolysis assay,[4],purified human and mouse RNF112T had relatively weak GTPase activity
same,GTP hydrolysis assay,[5],showed similar GTPase activity as RNF112T
same,GTP hydrolysis assay,[6],purified human and mouse RNF112T had relatively weak GTPase activity
near-full-length Xenopus laevis RNF112 containing residues 60 to 541 (RNF112F) (domain or fragment),stoichiometry N,[7],2
